Where two headings read alike, the source gives them in different places. Where a SMILES comes first, the peptide text is derived from it.
Assays:
HLA-A02.01 [1] = target: T1, HLA-A02.01 (Homo sapiens, UniProt P04439, D140Y/D185E/D98H/E176V/E277Q/G131W/G231S/I119V/I121R/I166T/I218V/N151K/N90K/P208A/P217A/Q86G/Q94H/R138H/R169H); assay: Class I MHC peptide binding stability (pMHC-I dissociation, 125I-labeled light chain); conditions: for Stability (T1/2 (h)): allele A02.01; for Stability (half-life (hr.)): EGFR T790M peptides, HLA allele A02.01
T1 construct: made in house; host or cells: E. coli

HLA-A02.01 [2] = target: HLA-A02.01 (Homo sapiens, UniProt P04439, D140Y/D185E/D98H/E176V/E277Q/G131W/G231S/I119V/I121R/I166T/I218V/L300P/L318F/N151K/N90K/P208A/P217A/Q86G/Q94H/R138H/R169H/T345S); assay: Class I MHC peptide binding affinity (displacement of radiolabeled reference peptide); conditions: for Kd: EGFR T790M peptides, HLA allele A02.01, read-out: Affinity
Summary of the method: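 Radiolabeled reference peptide/MHCI complexes; test peptide titration, 2 d incubation; bound label remaining read by size-exclusion gel filtration.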

[3] = allele A02.01, read-out: Observed Affinity (IC50, (nM))
[4] = Observed Affinity (IC50, (nM)), allele A02.01

Stability (T1/2 (h)) (HLA-A02.01 [1]) [h]	IC50 (HLA-A02.01 [2]; [3]) [nM]	Compound	also measured
14.2	10	CC(C)C[C@H](NC(=O)CN)C(=O)N[C@@H](CC(C)C)C(=O)N[C@@H](C)C(=O)N[C@@H](Cc1ccccc1)C(=O)N[C@@H](Cc1c[nH]c2ccccc12)C(=O)N[C@@H](CC(=O)O)C(=O)N[C@@H](CO)C(=O)N[C@@H](CCC(N)=O)C(=O)N[C@H](C(=O)O)C(C)C (H-GLLAFWDSQV-OH; N-terminus and C-terminus assumed)	–
7.4	44	CC(C)C[C@H](NC(=O)CN)C(=O)N[C@H](C(=O)N[C@@H](CC(=O)O)C(=O)N[C@@H](CCC(=O)O)C(=O)N[C@@H](CCC(N)=O)C(=O)N[C@@H](CCC(N)=O)C(=O)N[C@@H](CCC(=O)O)C(=O)N[C@H](C(=O)O)C(C)C)C(C)C	–
27.3	79	CC(C)C[C@H](NC(=O)[C@H](C)N)C(=O)N[C@@H](CO)C(=O)N[C@@H](CCC(=O)O)C(=O)N[C@@H](Cc1c[nH]cn1)C(=O)N[C@@H](CS)C(=O)N1CCC[C@H]1C(=O)N[C@H](C(=O)N[C@H](C(=O)O)[C@@H](C)O)[C@@H](C)O (H-ALSEHCPTT-OH; N-terminus and C-terminus assumed)	–
0.5	223	CC[C@H](C)[C@H](N)C(=O)N[C@@H](CC(C)C)C(=O)N[C@@H](CCSC)C(=O)N[C@@H](CCC(=O)O)C(=O)N[C@@H](CC(C)C)C(=O)N[C@@H](CCSC)C(=O)N[C@@H](C)C(=O)NCC(=O)NCC(=O)O (H-ILMELMAGG-OH; N-terminus and C-terminus assumed)	–
9.8	31	CSCC[C@H](NC(=O)[C@@H](N)CO)C(=O)N[C@@H](CC(C)C)C(=O)N[C@H](C(=O)N[C@@H](CC(=O)O)C(=O)N[C@@H](CO)C(=O)N[C@@H](CC(C)C)C(=O)N[C@@H](Cc1ccccc1)C(=O)N[C@@H](CC(C)C)C(=O)O)[C@@H](C)O (H-SMLTDSLFL-OH; N-terminus and C-terminus assumed)	–
24	219	CC(C)C[C@H](NC(=O)[C@H](CC(C)C)NC(=O)[C@@H](NC(=O)[C@H](CC(=O)O)NC(=O)[C@H](C)NC(=O)[C@H](CC(C)C)NC(=O)[C@@H](N)CS)C(C)C)C(=O)N[C@@H](CO)C(=O)N[C@H](C(=O)O)C(C)C (H-CLADVLLSV-OH; N-terminus and C-terminus assumed)	–
0.8	602	CSCC[C@H](NC(=O)[C@H](CCC(=O)O)NC(=O)[C@H](CC(C)C)NC(=O)[C@H](CC(C)C)NC(=O)[C@H](CC(C)C)NC(=O)[C@H](CC(=O)O)NC(=O)[C@H](CS)NC(=O)[C@H](CC(C)C)NC(=O)[C@@H]1CCCN1)C(=O)O (H-PLCDLLLEM-OH; N-terminus and C-terminus assumed)	–
0.4	177	CC[C@H](C)[C@H](NC(=O)[C@@H](N)CC(C)C)C(=O)N[C@@H](CCSC)C(=O)N[C@@H](CCC(N)=O)C(=O)N[C@@H](CC(C)C)C(=O)N[C@@H](CCSC)C(=O)N1CCC[C@H]1C(=O)N[C@@H](Cc1ccccc1)C(=O)NCC(=O)N[C@@H](CS)C(=O)O	Stability (half-life (hr.)) (HLA-A02.01 [1]): 0.3813 h; Kd (HLA-A02.01 [2]): 132 nM
6.6	1760	CC(C)C[C@H](NC(=O)[C@@H](NC(=O)[C@H](CC(=O)O)NC(=O)[C@H](CC(C)C)NC(=O)[C@@H](NC(=O)[C@@H](N)Cc1ccc(O)cc1)[C@@H](C)O)C(C)C)C(=O)N[C@@H](CCC(=O)O)C(=O)N[C@@H](CCCNC(=N)N)C(=O)N[C@@H](CS)C(=O)O	–
1.3	779	CC(C)C[C@H](NC(=O)[C@H](Cc1ccccc1)NC(=O)[C@@H](NC(=O)[C@H](Cc1ccc(O)cc1)NC(=O)[C@@H](NC(=O)CN)C(C)C)[C@@H](C)O)C(=O)N1CCC[C@H]1C(=O)N[C@@H](CO)C(=O)N[C@H](C(=O)O)[C@@H](C)O (H-GVYTFLPST-OH; N-terminus and C-terminus assumed)	–
16.5	2	CSCC[C@H](NC(=O)[C@@H](N)C(C)C)C(=O)N[C@@H](C)C(=O)N[C@@H](Cc1ccc(O)cc1)C(=O)N[C@H](C(=O)N[C@@H](CCSC)C(=O)N[C@@H](C)C(=O)NCC(=O)N[C@H](C(=O)O)C(C)C)C(C)C (H-VMAYVMAGV-OH; N-terminus and C-terminus assumed)	–
1.9	131	CC[C@H](C)[C@H](NC(=O)[C@H](Cc1ccc(O)cc1)NC(=O)[C@@H]1CCCN1C(=O)[C@H](CO)NC(=O)[C@H](CC(N)=O)NC(=O)[C@H](CO)NC(=O)[C@H](CCC(=O)O)NC(=O)[C@H](Cc1c[nH]cn1)NC(=O)[C@H](CC(C)C)NC(=O)[C@@H](N)C(C)C)C(=O)O (H-VLHESNSPYI-OH; N-terminus and C-terminus assumed)	–
6.8	3	CC[C@H](C)[C@H](NC(=O)[C@H](Cc1ccc(O)cc1)NC(=O)[C@H](CCC(=O)O)NC(=O)CNC(=O)[C@H](CO)NC(=O)[C@@H](N)Cc1ccccc1)C(=O)N1CCC[C@H]1C(=O)N[C@H](C(=O)N[C@H](C(=O)O)C(C)C)[C@@H](C)O (H-FSGEYIPTV-OH; N-terminus and C-terminus assumed)	–
0.4	1610	CC[C@H](C)[C@H](N)C(=O)N[C@@H](CCSC)C(=O)N[C@@H](CCC(N)=O)C(=O)N[C@@H](CC(C)C)C(=O)N[C@@H](CCSC)C(=O)N1CCC[C@H]1C(=O)N[C@@H](Cc1ccccc1)C(=O)NCC(=O)N[C@@H](CS)C(=O)O (H-IMQLMPFGC-OH; N-terminus and C-terminus assumed)	Stability (half-life (hr.)) (HLA-A02.01 [1]): 0.3701 h; Kd (HLA-A02.01 [2]): 1210 nM
0.9	187	CC(C)[C@H](N)C(=O)N[C@H](C(=O)N1CCC[C@H]1C(=O)N[C@@H](CS)C(=O)N[C@@H](CCC(=O)O)C(=O)N1CCC[C@H]1C(=O)N1CCC[C@H]1C(=O)N[C@@H](CCC(=O)O)C(=O)N[C@H](C(=O)O)C(C)C)C(C)C	–
0.4	390	CC[C@H](C)[C@H](NC(=O)[C@H](Cc1ccc(O)cc1)NC(=O)[C@H](CC(C)C)NC(=O)[C@@H](N)CO)C(=O)N[C@H](C(=O)NCC(=O)N[C@@H](Cc1ccccc1)C(=O)N[C@@H](Cc1ccc(O)cc1)C(=O)NCC(=O)N[C@@H](C)C(=O)O)C(C)C (H-SLYIVGFYGA-OH; N-terminus and C-terminus assumed)	–

Compound	Stability (T1/2 (h)) (HLA-A02.01 [1]) [h]	IC50 (HLA-A02.01 [2]; [3]) [nM]	also measured
CC[C@H](C)[C@H](NC(=O)[C@H](CC(N)=O)NC(=O)[C@@H](N)CCSC)C(=O)N[C@@H](C)C(=O)N[C@@H](CC(N)=O)C(=O)N[C@@H](CC(C)C)C(=O)N[C@@H](CC(C)C)C(=O)NCC(=O)N[C@@H](C)C(=O)O (H-MNIANLLGA-OH; N-terminus and C-terminus assumed)	0.3	–	IC50 (HLA-A02.01 [2]; [4]): 128 nM
CC(C)C[C@H](N)C(=O)N[C@H](C(=O)N[C@H](C(=O)N[C@H](C(=O)NCC(=O)N[C@@H](C)C(=O)N[C@@H](CS)C(=O)NCC(=O)N[C@H](C(=O)O)C(C)C)C(C)C)C(C)C)C(C)C (H-LVVVGACGV-OH; N-terminus and C-terminus assumed)	0.6	–	Measured stability (HLA-A02.01 [1]; HLA Allele A02.01, time for half of the complexes to dissociate at 37° C.): 0.6 h; IC50 (HLA-A02.01 [2]; Measured Affinity (nM), HLA Allele A02.01): 667 nM; IC50 (HLA-A02.01 [2]; [4]): 1210 nM
CC(C)[C@H](NC(=O)[C@H](CO)NC(=O)[C@H](Cc1ccccc1)NC(=O)[C@H](Cc1ccccc1)NC(=O)[C@H](Cc1ccccc1)NC(=O)[C@H](Cc1ccccc1)NC(=O)[C@H](CS)NC(=O)[C@@H](NC(=O)[C@@H](N)CO)C(C)C)C(=O)O	9.4	175	–
CC[C@H](C)[C@H](NC(=O)[C@H](Cc1ccc(O)cc1)NC(=O)[C@H](CC(C)C)NC(=O)[C@@H](N)CC(C)C)C(=O)N[C@H](C(=O)N[C@@H](C)C(=O)N[C@@H](Cc1ccccc1)C(=O)N[C@@H](Cc1ccccc1)C(=O)N[C@@H](CC(C)C)C(=O)O)[C@@H](C)O	17	713	–
CSCC[C@H](NC(=O)[C@@H](NC(=O)[C@H](Cc1ccc(O)cc1)NC(=O)[C@H](C)NC(=O)[C@H](CCSC)NC(=O)[C@@H](NC(=O)[C@@H](N)Cc1ccc(O)cc1)C(C)C)C(C)C)C(=O)N[C@@H](C)C(=O)NCC(=O)N[C@H](C(=O)O)C(C)C	20.9	57	–
CC[C@H](C)[C@H](NC(=O)[C@@H](NC(=O)[C@H](CC(C)C)NC(=O)[C@@H](NC(=O)[C@@H]1CCCN1C(=O)[C@H](CCCNC(=N)N)NC(=O)[C@H](CCC(N)=O)NC(=O)[C@H](CC(N)=O)NC(=O)[C@H](CCSC)NC(=O)CN)[C@@H](C)CC)[C@@H](C)O)C(=O)O	0.4	709	–
CC[C@H](C)[C@H](NC(=O)[C@@H](NC(=O)[C@H](CC(C)C)NC(=O)[C@@H](NC(=O)[C@@H]1CCCN1C(=O)[C@H](CCCNC(=N)N)NC(=O)[C@H](Cc1c[nH]c2ccccc12)NC(=O)[C@H](CC(N)=O)NC(=O)[C@H](CCSC)NC(=O)CN)[C@@H](C)CC)[C@@H](C)O)C(=O)O	0.5	282	–
CC(C)C[C@H](NC(=O)[C@@H](N)CCCCN)C(=O)NCC(=O)NCC(=O)NCC(=O)N[C@@H](CCC(N)=O)C(=O)N[C@@H](Cc1c[nH]cn1)C(=O)NCC(=O)N[C@@H](CCC(=O)O)C(=O)N[C@H](C(=O)O)C(C)C (H-KLGGGQHGEV-OH; N-terminus and C-terminus assumed)	0.4	–	IC50 (HLA-A02.01 [2]; [4]): 387 nM

Source: patent publication US20220282217A1, “COMPOSITIONS AND METHODS FOR PREPARING T CELL COMPOSITIONS AND USES THEREOF” (priority 2019, published 2022)
